Assay results published in patent US12043600B2, “Microbiocidal compounds” (SYNGENTA CROP PROTECTION AG, priority 2018, dated 2024).

Tests used:
[1] = tested on: Magnaporthe grisea (Pyricularia oryzae); test: whole plant or invertebrate; assay type: in vivo; conditions: foliar, read-out: control of Magnaporthe grisea
Plasmopara viticola = test: whole plant or invertebrate; assay type: in vivo; conditions: foliar, read-out: control of Plasmopara viticola
[2] = tested on: Puccinia recondita f. sp. tritici; test: Puccinia recondita f. sp. tritici/Wheat/Leaf Disc Preventative (Brown Rust); assay type: in vivo; conditions: foliar, 200 ppm, wheat leaf disc preventative, compared to untreated control, read-out: control of Puccinia recondita f. sp. tritici
[3] = tested on: Phaeosphaeria nodorum (Septoria nodorum); test: Phaeosphaeria nodorum (Septoria nodorum)/Wheat/Leaf Disc Preventative (Glume Blotch); assay type: in vivo; conditions: Parastagonospora nodorum, foliar, wheat leaf disc preventative, compared to untreated control
Description: Wheat leaf segments cv. Kanzler are placed on agar in a multiwell plate (24-well format) and sprayed with the formulated test compound diluted in water. The leaf disks are inoculated with a spore suspension of the fungus 2 days after application. The inoculated test leaf disks are incubated at 20° C. and 75% rh under a light regime of 12 h light/12 h darkness in a climate cabinet and the activity of a compound is assessed as percent disease control compared to untreated when an appropriate level of disease damage appears in untreated check leaf disks (5-7 days after application).

[4] = tested on: Monographella nivalis (Microdochium nivale); test: Monographella nivalis (Microdochium nivale)/Liquid Culture (Foot Rot Cereals); assay type: cell-based; conditions: liquid culture, compared to untreated control
Description: (§1) Conidia of the fungus from cryogenic storage are directly mixed into nutrient broth (PDB potato dextrose broth). After placing a (DMSO) solution of test compound into a microtiter plate (96-well format), the nutrient broth containing the fungal spores is added.

[5] = tested on: Mycosphaerella arachidis (Cercospora arachidicola); test: Mycosphaerella arachidis (Cercospora arachidicola)/Liquid Culture (Early Leaf Spot); assay type: cell-based; conditions: liquid culture, compared to untreated control
Description: as §1

[6] = tested on: Puccinia recondita f. sp. tritici; test: Puccinia recondita f. sp. tritici/Wheat/Leaf Disc Curative (Brown Rust); assay type: in vivo; conditions: foliar, wheat leaf disc curative, compared to untreated control
Description: Wheat leaf segments cv. Kanzler are placed on agar in multiwell plates (24-well format). The leaf segments are inoculated with a spore suspension of the fungus. Plates are stored in darkness at 19° C. and 75% rh. The formulated test compound diluted in water is applied 1 day after inoculation. The leaf segments are incubated at 19° C. and 75% rh under a light regime of 12 h light/12 h darkness in a climate cabinet and the activity of a compound is assessed as percent disease control compared to untreated when an appropriate level of disease damage appears in untreated check leaf segments (6-8 days after application).

[7] = tested on: Mycosphaerella graminicola (Septoria tritici); test: Mycosphaerella graminicola (Septoria tritici)/Liquid Culture (Septoria Blotch); assay type: cell-based; conditions: Zymoseptoria tritici; 20 ppm; liquid culture; compared to untreated control
Description: Conidia of the fungus from cryogenic storage are directly mixed into nutrient broth (PDB potato dextrose broth). After placing a (DMSO) solution of test compound into a microtiter plate (96-well format), the nutrient broth containing the fungal spores is added. […] The data are presented as the percentage of disease control of each compound for the biological tests against G. lagenarium (Example B3), P. recondita preventative (Example B13), P. teres (Example B15) and M. graminicola (Example B19) as described above. The testing rates of each biological test is specifically described in table C1 below.

[8] = tested on: Blumeria graminis f. sp. tritici (Erysiphe graminis f. sp. tritici); test: Blumeria graminis f. sp. tritici/Wheat/Leaf Disc Preventative (Powdery Mildew on Wheat); assay type: in vivo; conditions: foliar, wheat leaf disc preventative, compared to untreated control
Description: Wheat leaf segments cv. Kanzler are placed on agar in a multiwell plate (24-well format) and sprayed with the formulated test compound diluted in water. The leaf disks are inoculated by shaking powdery mildew infected plants above the test plates 1 day after application. The inoculated leaf disks are incubated at 20° C. and 60% rh under a light regime of 24 h darkness followed by 12 h light/12 h darkness in a climate chamber and the activity of a compound is assessed as percent disease control compared to untreated when an appropriate level of disease damage appears on untreated check leaf segments (6-8 days after application).

Phytophthora infestans = test: whole plant or invertebrate; assay type: in vivo; conditions: in Solanum lycopersicum, foliar, read-out: control of Phytophthora infestans
[9] = tested on: Glomerella lagenarium (Colletotrichum lagenarium); test: Glomerella lagenarium (Colletotrichum lagenarium)/Liquid Culture (Anthracnose); assay type: cell-based; conditions: Colletotrichum orbiculare, liquid culture, compared to untreated control
[10] = tested on: Botryotinia fuckeliana (Botrytis cinerea); test: Botryotinia fuckeliana (Botrytis cinerea)/Liquid Culture (Gray Mould); assay type: cell-based; conditions: liquid culture, compared to untreated control
Description: Conidia of the fungus from cryogenic storage are directly mixed into nutrient broth (Vogels broth). After placing a (DMSO) solution of test compound into a microtiter plate (96-well format), the nutrient broth containing the fungal spores is added.

Phakopsora pachyrhizi = test: Phakopsora pachyrhizi/Soybean/Preventative (Soybean Rust); assay type: in vivo; conditions: foliar, 288 h, 200 ppm, soybean leaf disc preventative, compared to untreated control, read-out: control of Phakopsora pachyrhizi

Row | SMILES | pest or weed control at 200 ppm [1] [%] | pest or weed control at 200 ppm (Plasmopara viticola) [%] | melting point [°C] | pest or weed control at 200 ppm [2] [%] | pest or weed control at 200 ppm [3] [%] | inhibition of growth at 20 ppm [4] [%] | inhibition of growth at 20 ppm [5] [%] | pest or weed control at 200 ppm [6] [%] | inhibition of growth at 20 ppm [7] [%] | pest or weed control at 200 ppm [8] [%] | pest or weed control at 200 ppm (Phytophthora infestans) [%] | inhibition of growth at 20 ppm [9] [%] | inhibition of growth at 20 ppm [10] [%] | pest or weed control at 200 ppm (Phakopsora pachyrhizi) [%]
1 | CO/C=C(\Oc1cc(-n2cc(Cl)c(C(C)C)n2)ccc1C)C(=O)OC [Compound E-11, methyl (Z)-2-[5-(4-chloro-3-isopropyl-pyrazol-1-yl)-2-methyl-phenoxy]-3-methoxy-prop-2-enoate] | ≥ 80 | ≥ 80 | 95 to 100 | ≥ 80 | ≥ 80 | ≥ 80 | ≥ 80 | ≥ 80 | ≥ 80 | – | – | – | – | –
2 | CO/C=C(\Oc1cc(-n2ccc(C3CC3(F)F)n2)ccc1C)C(=O)OC (centres unmarked) [Compound E-26, methyl (Z)-2-[5-[3-(2,2-difluorocyclopropyl)pyrazol-1-yl]-2-methyl-phenoxy]-3-methoxy-prop-2-enoate] | ≥ 80 | ≥ 80 | – | ≥ 80 | ≥ 80 | ≥ 80 | ≥ 80 | ≥ 80 | ≥ 80 | ≥ 80 | ≥ 80 | ≥ 80 | – | –
3 | CO/C=C(\Oc1cc(-n2ccc(C)n2)c(Cl)cc1C)C(=O)OC [Compound E-28, methyl (Z)-2-[4-chloro-2-methyl-5-(3-methylpyrazol-1-yl)phenoxy]-3-methoxy-prop-2-enoate] | – | ≥ 80 | – | ≥ 80 | – | ≥ 80 | ≥ 80 | ≥ 80 | ≥ 80 | ≥ 80 | – | ≥ 80 | – | –
4 | CO/C=C(\Oc1cc(-n2cc(C#N)cn2)ccc1C)C(=O)OC [Compound E-55, methyl (Z)-2-[5-(4-cyanopyrazol-1-yl)-2-methyl-phenoxy]-3-methoxy-prop-2-enoate] | – | – | – | ≥ 80 | – | ≥ 80 | ≥ 80 | – | ≥ 80 | – | – | – | ≥ 80 | –
5 | CO/C=C(\Oc1cc(-n2ccc(COC)n2)ccc1C)C(=O)OC [Compound E-77, methyl (Z)-3-methoxy-2-[5-[3-(methoxymethyl)pyrazol-1-yl]-2-methyl-phenoxy]prop-2-enoate] | – | ≥ 80 | 107 to 110 | ≥ 80 | – | ≥ 80 | ≥ 80 | ≥ 80 | ≥ 80 | ≥ 80 | – | ≥ 80 | – | ≥ 50
6 | CO/C=C(\Oc1cc(-n2ccc(C(F)F)n2)ccc1Br)C(=O)OC [Compound E-86, methyl (Z)-2-[2-bromo-5-[3-(difluoromethyl)pyrazol-1-yl]phenoxy]-3-methoxy-prop-2-enoate] | ≥ 80 | – | – | ≥ 80 | ≥ 80 | ≥ 80 | ≥ 80 | – | ≥ 80 | ≥ 80 | – | ≥ 80 | ≥ 80 | –
7 | CO/C=C(\Oc1cc(-n2ccc(C(F)(F)F)n2)ccc1Br)C(=O)OC [Compound E-87, methyl (Z)-2-[2-bromo-5-[3-(trifluoromethyl)pyrazol-1-yl]phenoxy]-3-methoxy-prop-2-enoate] | – | ≥ 80 | – | ≥ 80 | – | ≥ 80 | ≥ 80 | – | ≥ 80 | ≥ 80 | ≥ 80 | ≥ 80 | ≥ 80 | ≥ 50
8 | CCc1ccn(-c2ccc(C)c(O/C(=C\OC)C(=O)OC)c2)n1 [Compound E-91, methyl (Z)-2-[5-(3-ethylpyrazol-1-yl)-2-methyl-phenoxy]-3-methoxy-prop-2-enoate] | – | – | – | ≥ 80 | – | ≥ 80 | ≥ 80 | – | ≥ 80 | ≥ 80 | – | ≥ 80 | ≥ 80 | ≥ 50
9 | CO/C=C(\Oc1cc(-n2ccc(C3CC3)n2)ccc1Br)C(=O)OC [Compound E-97, methyl (Z)-2-[2-bromo-5-(3-cyclopropylpyrazol-1-yl)phenoxy]-3-methoxy-prop-2-enoate] | – | – | – | ≥ 80 | – | ≥ 80 | ≥ 80 | – | ≥ 80 | ≥ 80 | ≥ 80 | ≥ 80 | ≥ 80 | ≥ 50
10 | CO/C=C(\Oc1cc(-n2ccc(C)n2)ccc1C)C(=O)OC [Compound E-104, methyl (Z)-3-methoxy-2-[2-methyl-5-(3-methylpyrazol-1-yl)phenoxy]prop-2-enoate] | ≥ 80 | – | – | ≥ 80 | ≥ 80 | ≥ 80 | ≥ 80 | – | ≥ 80 | ≥ 80 | – | ≥ 80 | ≥ 80 | –
11 | CO/C=C(\Oc1cc(-n2ccc(C3CCCCC3)n2)cc(C)c1C)C(=O)OC [Compound E-110, methyl (Z)-2-[5-(3-cyclohexylpyrazol-1-yl)-2,3-dimethyl-phenoxy]-3-methoxy-prop-2-enoate] | ≥ 80 | ≥ 80 | 90 to 93 | ≥ 80 | ≥ 80 | ≥ 80 | ≥ 80 | ≥ 80 | ≥ 80 | – | ≥ 80 | ≥ 80 | – | –
12 | CO/C=C(\Oc1cc(-n2ccc(C3CCCCC3)n2)c(Cl)cc1C)C(=O)OC [Compound E-115, methyl (Z)-2-[4-chloro-5-(3-cyclohexylpyrazol-1-yl)-2-methyl-phenoxy]-3-methoxy-prop-2-enoate] | – | – | 127 to 129 | ≥ 80 | – | ≥ 80 | ≥ 80 | ≥ 80 | ≥ 80 | ≥ 80 | – | ≥ 80 | – | –
13 | CO/C=C(\Oc1cc(-n2ncc(C3CC3)n2)ccc1C)C(=O)OC [Compound F-8, methyl (Z)-2-[5-(4-cyclopropyltriazol-2-yl)-2-methyl-phenoxy]-3-methoxy-prop-2-enoate] | – | ≥ 80 | – | – | ≥ 80 | ≥ 80 | ≥ 80 | – | ≥ 80 | ≥ 80 | ≥ 80 | ≥ 80 | ≥ 80 | –
